Data published in publication PMC5729604, “Dual inhibitors of hepatitis C virus and hepatocellular carcinoma: design, synthesis and docking studies” (Future Science OA, 2017).

Assays:
In vitro hemolytic assay = type: cell-based; conditions: 2% erythrocyte suspension (washed red blood cells); 2% erythrocyte suspension, 3 μl of 1 mg/ml compound in DMF per 240 μl well, 37°C 30 min, absorbance 405 nm; <5% considered nontoxic
Procedure: Compounds 5a-x and 6a-h were subjected to the in vitro hemolytic assay to identify those which cause hemolysis to red blood cells (RBCs). Consequently, these compounds would be toxic in vivo so they were excluded from further biological screening.
Blood samples (5 ml) were freshly collected into heparinized tubes and were centrifuged (1000 r.p.m. for 20 min) at room temperature. The plasma and buffy coat were removed by Pasteur pipette, and the collected erythrocytes were washed three-times using isotonic buffer solution (0.9% sodium chloride [Sigma-Aldrich, MO, USA]) by centrifugation (2500 r.p.m. for 10 min). A two percent erythrocyte suspension was prepared to be used in the assay.
A 1 mg/ml stock solution of each compound was prepared in DMF (Sigma-Aldrich). Compound wells were prepared by adding 3 μl of the compound solution to 117 μl isotonic buffer solution and 120 μl erythrocyte suspension. Compounds color blank wells were prepared by adding 3 μl compound to 237 μl isotonic buffer solution. Solvent (DMF) wells were prepared by adding 3 μl DMF to 117 μl isotonic buffer solution and 120 μl erythrocyte suspension. Positive control wells (representing 100% hemolysis) were prepared by adding 120 μl erythrocyte suspension to 120 μl distilled water, while negative control wells (representing 0% hemolysis) were prepared by adding 120 μl erythrocyte suspension to 120 μl isotonic buffer solution. Finally, blank wells contained only 240 μl isotonic buffer solution. Each set of samples was pipetted in triplicate. The microtiter plate was then shaken well on bench, incubated at 37°C for 30 min then centrifuged (2000 rpm for 5 min) at room temperature.
A fraction of the supernatant layer (150 μl) of each well was transferred to another 96-well microtiter plate. Erythrocyte hemolysis was determined by reading the absorbance (A) of liberated hemoglobin at 405 nm in the supernatant fraction compared with the 100% hemolysis of erythrocyte. The average value was calculated from triplicate assay: [drawing 2]

[1] = test system: human peripheral blood mononuclear cells (PBMCs); type: cell-based; conditions: 72 h
Procedure: The safe compounds on RBCs (5a-g, 5i-l, 5p-r, 5v-w, 6b-g) were subjected to the in vitro cytotoxicity assay on human peripheral blood mononuclear cells (PBMCs). Viability of cells was measured using neutral red uptake assay as described by Borenfreund and Puerner to determine the concentrations of each compound that were not cytotoxic. The results were interpreted to calculate both the lethal concentration that kills 50% of cells (LD50) and the maximum safe concentration that causes 100% viability (LD0) of each compound using GraphPad InStat 3.0 software (Figure 6 & Supplementary Table 3).
The PBMCs were isolated by density gradient centrifugation technique as described by Boyum. Blood samples were freshly collected into heparinized or ethylenediaminetetraacetic acid sterile tubes. Blood was diluted using equal volume of RPMI-1640 medium containing 25 mM HEPES and then layered over equal volume of Ficoll-Pague™ Plus (Fisher BioReagents™ Lymphocyte Separation Medium-LSM, PA, USA) and centrifuged (2000 r.p.m. for 30 min at acceleration and deceleration speeds zero & zero) at room temperature. The buffy mononuclear cell layer was collected using sterile Pasteur pipette into 50 ml sterile Falcon tube and washed twice in phosphate-buffered saline (Sigma-Aldrich) using centrifugation (1650 r.p.m. for 5 min). The isolated PBMCs viability was determined by hemocytometer count using the trypan blue exclusion method. The PBMCs were resuspended at 1 × 10^6 cells/ml in RPMI-1640 medium containing 25 mM HEPES supplemented with 10% heat-inactivated FBS. The appropriate number of cells was chosen to be 1 × 10^5 cells/well (100 μl of the prepared suspension).
A 2 mg/ml stock solution of each compound was prepared in DMF and filtered using a 0.2 μM syringe filter. The desired concentrations (20, 10, 5, 2.5 and 1.25 μg/ml) were prepared using serial dilution in a 96-well plate. Compound wells were prepared by adding 100 μl of the previously prepared concentrations to a suspension of 1 × 10^5 PBMCs in 100 μl culture media. Parallel concentrations of the solvent were prepared to be used as controls. Control wells were prepared by adding 100 μl culture media to a suspension of 1 × 10^5 PBMCs in 100 μl culture media. Blank wells contained 200 μl of culture media only (without cells or compound solution). Each set of samples was pipetted in duplicate. The plate was then gently shaken then incubated at 37°C, 5% CO2 for 72 h.
After incubation, neutral red assay was performed as described previously, and surviving cell fraction was calculated according to the previously mentioned equation. Also, the results were interpreted to calculate both the lethal concentration that kills 50% of cells (LD50) and the maximum safe concentration that cause 100% viability (LD0) of each compound using GraphPad InStat 3.0 software.

Compound | hemolysis at 30 min, 12.5 µg/ml (In vitro hemolytic assay) [%] | (LD0) PBMCs [1] [µg/mL] | LD0 [1] [µg/mL] | LD50 [1] [µg/mL] | LD50 (PBMCs) [1] [µg/mL]
COc1ccc(-c2nn(-c3ccccc3)cc2C=C2SC(=NN=C(C)c3cc4ccccc4o3)N(C3CCCCC3)C2=O)cc1 [Compound 5l, 2-[1-(Benzofuran-2-yl)ethylidenehydrazono]-5-{[3-(4-methoxyphenyl)-1-phenyl-1H-pyrazol-4-yl]methylene}-3-cyclohexylthiazolidin-4-one] | 2.89 | 8.33 | 8.33 | 46.89 | 46.89
CC(=NN=C1SC(=Cc2cn(-c3ccccc3)nc2-c2ccccc2)C(=O)N1c1ccc(Cl)cc1)c1nc2ccccc2[nH]1 [Compound 5p, 2-[1-(1H-Benzimidazole-2-yl)ethylidenehydrazono]-5-[(1,3-Diphenyl-1H-pyrazol-4-yl)methylene]-3-(4-chlorophenyl)thiazolidin-4-one] | 4.62 | 12.67 | 12.67 | 120.46 | 120.46
CC(=NN=C1SC(=Cc2cn(-c3ccccc3)nc2-c2ccccc2)C(=O)N1C1CCCCC1)c1cc2ccccc2o1 [Compound 5j, 2-[1-(Benzofuran-2-yl)ethylidenehydrazono]-5-[(1,3-Diphenyl-1H-pyrazol-4-yl)methylene]-3-cyclohexylthiazolidin-4-one] | 3.01 | 9.90 | 9.90 | 134.00 | 134.00
CC(=NN=C1SC(=C2C(=O)Nc3ccccc32)C(=O)N1c1ccc(Cl)cc1)c1cc2ccccc2o1 [Compound 6b, 2-[1-(Benzofuran-2-yl)ethylidenehydrazono]-5-(2-oxoindolin-3-ylidene)-3-(4-chlorophenyl)thiazolidin-4-one] | 3.08 | 18.18 | 18.18 | 61.46 | –
COc1ccc(-c2nn(-c3ccccc3)cc2C=C2SC(=NN=C(C)c3cc4ccccc4o3)N(c3ccccc3)C2=O)cc1 [Compound 5c, 2-[1-(Benzofuran-2-yl)ethylidenehydrazono]-5-{[3-(4-methoxyphenyl)-1-phenyl-1H-pyrazol-4-yl]methylene}-3-phenylthiazolidin-4-one] | 1.65 | 32.45 | 32.45 | 139.19 | –
CC(=NN=C1SC(=Cc2cn(-c3ccccc3)nc2-c2ccc(Cl)cc2)C(=O)N1c1ccccc1)c1cc2ccccc2o1 [Compound 5b, 2-[1-(Benzofuran-2-yl)ethylidenehydrazono]-5-{[3-(4-chlorophenyl)-1-phenyl-1H-pyrazol-4-yl]methylene}-3-phenylthiazolidin-4-one] | 4.22 | 5.83 | 5.83 | 92.27 | –
CC(=NN=C1SC(=Cc2cn(-c3ccccc3)nc2-c2ccc(Cl)cc2)C(=O)N1C1CCCCC1)c1cc2ccccc2o1 [Compound 5k, 2-[1-(Benzofuran-2-yl)ethylidenehydrazono]-5-{[3-(4-chlorophenyl)-1-phenyl-1H-pyrazol-4-yl]methylene}-3-cyclohexylthiazolidin-4-one] | 4.44 | 33.29 | 33.29 | 319.64 | –
COc1ccc(-c2nn(-c3ccccc3)cc2C=C2SC(=NN=C(C)c3cc4ccccc4o3)N(c3ccc(Cl)cc3)C2=O)cc1 [Compound 5f, 2-[1-(Benzofuran-2-yl)ethylidenehydrazono]-5-{[3-(4-methoxyphenyl)-1-phenyl-1H-pyrazol-4-yl]methylene}-3-(4-chlorophenyl)thiazolidin-4-one] | 4.59 | 5.83 | 5.83 | 259.71 | 259.71
COc1ccc(-c2nn(-c3ccccc3)cc2C=C2SC(=NN=C(C)c3cc4ccccc4o3)N(c3ccc(OC)cc3)C2=O)cc1 [Compound 5i, 2-[1-(Benzofuran-2-yl)ethylidenehydrazono]-5-{[3-(4-methoxyphenyl)-1-phenyl-1H-pyrazol-4-yl]methylene}-3-(4-methoxyphenyl)thiazolidin-4-one] | 2.97 | 7.60 | 7.60 | 25.35 | –
CC(=NN=C1SC(=Cc2cn(-c3ccccc3)nc2-c2ccccc2)C(=O)N1C1CCCCC1)c1nc2ccccc2[nH]1 [Compound 5v, 2-[1-(1H-Benzimidazole-2-yl)ethylidenehydrazono]-5-[(1,3-Diphenyl-1H-pyrazol-4-yl)methylene]-3-cyclohexylthiazolidin-4-one] | 3.66 | 13.85 | 13.85 | 43.40 | –
CC(=NN=C1SC(=C2C(=O)Nc3ccccc32)C(=O)N1c1ccccc1)c1nc2ccccc2[nH]1 [Compound 6e, 2-[1-(1H-Benzimidazole-2-yl)ethylidenehydrazono]-5-(2-oxoindolin-3-ylidene)-3-phenylthiazolidin-4-one] | 4.51 | 19.22 | 19.22 | 329.03 | –
COc1ccc(N2C(=O)C(=C3C(=O)Nc4ccccc43)SC2=NN=C(C)c2nc3ccccc3[nH]2)cc1 [Compound 6g, 2-[1-(1H-Benzimidazole-2-yl)ethylidenehydrazono]-5-(2-oxoindolin-3-ylidene)-3-(4-methoxyphenyl)thiazolidin-4-one] | 2.65 | 14.41 | 14.41 | 136.76 | –
COc1ccc(N2C(=O)C(=Cc3cn(-c4ccccc4)nc3-c3ccccc3)SC2=NN=C(C)c2cc3ccccc3o2)cc1 [Compound 5g, 2-[1-(Benzofuran-2-yl)ethylidenehydrazono]-5-[(1,3-Diphenyl-1H-pyrazol-4-yl)methylene]-3-(4-methoxyphenyl)thiazolidin-4-one] | 2.03 | 8.88 | 8.88 | 39.01 | –
COc1ccc(N2C(=O)C(=C3C(=O)Nc4ccccc43)SC2=NN=C(C)c2cc3ccccc3o2)cc1 [Compound 6c, 2-[1-(Benzofuran-2-yl)ethylidenehydrazono]-5-(2-oxoindolin-3-ylidene)-3-(4-methoxyphenyl)thiazolidin-4-one] | 4.02 | 11.41 | 11.41 | 28.67 | 28.67
CC(=NN=C1SC(=Cc2cn(-c3ccccc3)nc2-c2ccc(Cl)cc2)C(=O)N1C1CCCCC1)c1nc2ccccc2[nH]1 [Compound 5w, 2-[1-(1H-Benzimidazole-2-yl)ethylidenehydrazono]-5-{[3-(4-chlorophenyl)-1-phenyl-1H-pyrazol-4-yl]methylene}-3-cyclohexylthiazolidin-4-one] | 3.53 | 16.03 | 16.03 | 36.28 | –
